Values joined by “and” are separate entries in the source; they are usually repeats but may differ in a detail not shown here. Equal entries are not always repeated. Numbers after ± are expanded uncertainties.
Legend:
[1] = 100 kPa, Liquid; for viscosity: Capillary tube (Ostwald / Ubbelohde) method
[2] = mn = molality of the nth substance listed, in mol/kg; settings: 100 kPa, Liquid; for viscosity: Capillary tube (Ostwald / Ubbelohde) method; for speed of sound: Frequency=3 MHz, Single path-length method; for mass density: Vibrating tube method

O [water]
[1]
Settings | viscosity [mPa·s]
293.15 K | 1.002 ± 0.027
298.15 K | 0.89 ± 0.027
303.15 K | 0.797 ± 0.026
308.15 K | 0.719 ± 0.026
313.15 K | 0.652 ± 0.026

Settings | speed of sound [m/s]
[1], 313.15 K, Frequency=3 MHz, Single path-length method | 1528.8 ± 6

CN(C)C(=N)NC(=N)N.Cl [N,N-dimethylimidodicarbonimidic diamide hydrochloride] + O
[2]
Settings | mass density, m1 = 0.005 [kg/m3] | mass density, m1 = 0.01 [kg/m3] | mass density, m1 = 0.05 [kg/m3] | speed of sound, m1 = 0.005 [m/s] | speed of sound, m1 = 0.01 [m/s] | speed of sound, m1 = 0.05 [m/s] | viscosity, m1 = 0.005 [mPa·s] | viscosity, m1 = 0.01 [mPa·s] | viscosity, m1 = 0.05
293.15 K | 998.35 ± 0.45 | 998.57 ± 0.45 | 999 ± 0.45 | 1483 ± 6 | 1483.3 ± 6 | 1483.7 ± 6 | 1.006 ± 0.027 | 1.01 ± 0.027 | 1.014 ± 0.027 mPa·s
298.15 K | 997.2 ± 0.45 | 997.4 ± 0.45 | 997.91 ± 0.45 | 1497 ± 6 | 1497.3 ± 6 | 1497.7 ± 6 | 0.891 ± 0.027 | 0.893 ± 0.027 | 0.895 ± 0.027 mPa·s and 0.8947 ± 0.026 mPa·s
303.15 K | 995.72 ± 0.45 | 995.99 ± 0.45 | 996.53 ± 0.45 | 1509.4 ± 6 | 1509.7 ± 6 | 1510 ± 6 | 0.799 ± 0.026 | 0.801 ± 0.026 | 0.804 ± 0.026 mPa·s
308.15 K | 994.19 ± 0.45 | 994.37 ± 0.45 | 994.92 ± 0.45 | 1520 ± 6 | 1520.3 ± 6 | 1520.7 ± 6 | 0.722 ± 0.026 | 0.725 ± 0.026 | 0.728 ± 0.026 mPa·s and 0.7276 ± 0.026 mPa·s
313.15 K | 992.38 ± 0.45 | 992.54 ± 0.45 | 993.1 ± 0.45 | 1529.1 ± 6 | 1529.4 ± 6 | 1529.7 ± 6 | 0.655 ± 0.026 | 0.657 ± 0.026 | 0.659 ± 0.026 mPa·s

From the NIST ThermoML archive (doi:10.1021/acs.jced.8b00509)
